According to patent US10942183B2, “Methods of detecting progesterone receptor and of detecting an expression level” (REGENTS OF THE UNIVERSITY OF MINNESOTA, priority 2017, dated 2021):

What was measured:
T47D cells = assay: Mammosphere formation in T47D cells; type: cell-based, human; conditions: T47D EV, WT, KR or S294A PR-B; estrogen 1 nM, progesterone 10 nM; 14 days
Experimental: Primary Mammospheres: Adherent cells were washed with PBS and dissociated enzymatically in 0.25% trypsin-EDTA (Invitrogen Corporation, Carlsbad, Calif.). Cells were sieved through a 40-μm sieve (BD FALCON, BD Biosciences, Bedford, Mass.) and analyzed microscopically for single-cellularity. Single cells were plated in ultra-low attachment plates (Corning, Inc., Corning, N.Y.) and cultured in a humid incubator. Cells were grown in a serum-free mammary epithelial basal medium (MEBM; Lonza Group, Basel, Switzerland) containing 1% B27 Supplement (Invitrogen Corporation, Carlsbad, Calif.), 1% penicillin-streptomycin (Invitrogen Corporation, Carlsbad, Calif.), 5 μg/ml insulin (Invitrogen Corporation, Carlsbad, Calif.), 20 ng/ml EGF (Sigma-Aldrich, St. Louis, Mo.), 1 ng/ml hydrocortisone (Sigma-Aldrich, St. Louis, Mo.), and 100 μM β-mercaptoethanol. […] Mammosphere Forming Efficiency (MFE) % was calculated by the number of mammospheres per well/number of cells seeded per well.
Secondary Mammospheres: Primary mammospheres were collected by centrifugation (5 min, 1000 rpm), and dissociated enzymatically in 0.25% typsin-EDTA. Cells were sieved through a 40-μm tip strainer (Bel-Art SP Scienceware, South Wayne, N.J.) and analyzed microscopically for single-cellularity. […] Mammosphere Forming Efficiency (MFE) % was calculated by the number of mammospheres per well/number of cells seeded per well. […]

[1] = tested on: PR Ser294 phosphorylation; assay: Breast tumor explants, phospho-Ser294 PR IHC; type: cell-based, human; conditions: progesterone 10 nM, 2 hours, IHC, n=6
Text: De-identified breast tumor samples were collected after surgery and immediately processed for tissue explant maintenance on sponges in cell culture medium, as previously described (Ravindranathan et al. Nature Communications 2013, 4:1923). Samples were derived from six patients pathologically diagnosed with invasive ductal carcinoma (IDC) and scored positive for ER (94-100%) and PR (1-100%), and negative for HER2 expression. […] In additional experiments, six explants were similarly treated with estrogen or progesterone (2 hours) but in combination with 1 uM U0126 (to inhibit ERKs 1/2) and phospho-Ser294 PR levels were measured by IHC.
ER+ luminal tumors were maintained as explants as above and instead treated with either vehicle or progesterone (10 nM) for 2 hours in the presence or absence of the MEK1/2 inhibitor U0126 (1 nM) prior to IHC staining using specific antibodies for total and phospho-Ser294 PR as well as ER-alpha and phospho-ERK1/2 (n=6; see Methods).

[2] = tested on: human breast tumor tissue (tumor explants); assay: Breast tumor explants cultured ex vivo, Ki-67 IHC (proliferation); type: cell-based; conditions: ER+/PR+ tumor explants, 48 hours; progesterone 10 nM; estrogen 1 nM and 10 nM; n=6
Text: De-identified breast tumor samples were collected after surgery and immediately processed for tissue explant maintenance on sponges in cell culture medium, as previously described (Ravindranathan et al. Nature Communications 2013, 4:1923). Samples were derived from six patients pathologically diagnosed with invasive ductal carcinoma (IDC) and scored positive for ER (94-100%) and PR (1-100%), and negative for HER2 expression. Tissue explants were starved in media containing hormone-stripped FBS for 24 hours, and then treated for 48 hours with (1) vehicle, (2) 1 nM estradiol, (3) 10 nM estradiol, (4) 1 nM progesterone, (5) 10 nM progesterone prior to processing for quantitation of Ki-67 levels by IHC. Across treatment conditions, statistical significance was tested for using one-way analysis-of-variance (ANOVA) followed by pairwise testing of all treatment groups using the TukeyHSD post-test with R statistical software (R Core Team: R: A language and environment for statistical computing. R Foundation for Statistical Computing, Vienna, Austria 2015, [available on the world wide web at r-project.org/]). In additional experiments, six explants were similarly treated with estrogen or progesterone (2 hours) but in combination with 1 uM U0126 (to inhibit ERKs 1/2) and phospho-Ser294 PR levels were measured by IHC. […]

CC(=O)[C@H]1CC[C@H]2[C@@H]3CCC4=CC(=O)CC[C@]4(C)[C@H]3CC[C@]12C [progesterone]
total numbers of primary and secondary mammospheres on addition of hormone to culture media (T47D cells): had no significant effect on total numbers in any condition | PR Ser294 phosphorylation in tumor explants [1]: induced robust PR Ser294 phosphorylation | percentage of Ki67-positive cells compared to vehicle treatment [2]: significantly higher percentage of Ki67-positive cells
